From the NIST ThermoML archive (doi:10.1016/j.fluid.2018.05.018)
± gives the expanded uncertainty stated by the source.

Settings: Crystal; visual observation

Q: Which Normal melting temperature does the source give for `CCOC(=O)N1CCC(=C2c3ccc(Cl)cc3CCc3cccnc32)CC1` [claritine] here?
A: 134 ± 4 °C
